Source: patent US11220491B2, “Photoprotective compositions containing Malassezia-derived compounds and/or chemical analogs thereof” (Versicolor Technologies, LLC, priority 2018, dated 2022)
Several values for one entry are separate records, joined by “and”; a condition that tells them apart may be missing. Equal values may be shown once. Read-outs that look alike come from different tables or passages of the source.

Assays:
[1] = target: T1, arylhydrocarbon receptor (AhR) (Homo sapiens, UniProt P35869); assay: HepG2-AhR-Luciferase assay
T1 sequence (P35869 11-848): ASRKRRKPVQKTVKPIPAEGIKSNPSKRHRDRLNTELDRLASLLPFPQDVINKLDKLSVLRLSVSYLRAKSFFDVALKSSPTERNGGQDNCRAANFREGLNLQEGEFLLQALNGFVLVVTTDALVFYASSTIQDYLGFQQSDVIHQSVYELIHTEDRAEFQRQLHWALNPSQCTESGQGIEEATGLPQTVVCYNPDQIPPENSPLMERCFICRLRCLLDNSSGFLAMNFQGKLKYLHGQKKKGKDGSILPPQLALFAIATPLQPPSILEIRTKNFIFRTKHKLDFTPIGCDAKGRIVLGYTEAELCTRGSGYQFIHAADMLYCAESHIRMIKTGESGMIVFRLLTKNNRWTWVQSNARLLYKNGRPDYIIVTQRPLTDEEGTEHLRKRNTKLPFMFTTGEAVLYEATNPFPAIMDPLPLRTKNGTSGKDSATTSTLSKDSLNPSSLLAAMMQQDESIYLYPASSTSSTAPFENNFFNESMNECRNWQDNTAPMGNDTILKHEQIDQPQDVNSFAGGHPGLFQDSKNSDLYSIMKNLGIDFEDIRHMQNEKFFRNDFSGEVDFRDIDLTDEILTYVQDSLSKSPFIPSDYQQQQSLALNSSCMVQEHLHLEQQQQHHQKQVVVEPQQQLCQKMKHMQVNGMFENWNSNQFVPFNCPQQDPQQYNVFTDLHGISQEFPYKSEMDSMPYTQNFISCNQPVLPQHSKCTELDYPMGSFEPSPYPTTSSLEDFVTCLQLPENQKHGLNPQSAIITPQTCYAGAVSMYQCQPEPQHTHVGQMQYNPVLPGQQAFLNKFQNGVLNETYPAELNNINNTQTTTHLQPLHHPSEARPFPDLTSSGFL
Procedure: HepG2-AhR-Luc cells were purchased from Pharmaron, One-Glo Luciferase assay system was purchased from Promega. DMEM was purchased from Hyclone, and penicillin/streptomycin was purchased from Solabio.
Culture media for stably transfected HepG2 cells was prepared by supplementing DMEM with high glucose and L-glutamine, as well as 10% FBS.
HepG2-AhR-Luc cells were cultured in T-75 flasks at 37° C., 5% CO2, and 95% relative humidity. Cells were allowed to reach 80-90% confluence before detachment and splitting.
Cultivated cells were rinsed with 5 mL PBS. PBS was aspirated away, 1.5 mL trypsin was added to the flask, and cells were incubated at 37° C. for approximately 5 minutes or until the cells detached and floated. Trypsin was inactivated by adding excess serum-containing media.
The cell suspension was transferred to a conical tube and centrifuged at 120 g for 10 minutes to pellet the cells. Cells were resuspended in seeding media at a proper density. 40 μL of cells were transferred to a 384-well culture plate (5×10^3 cells/well). Plates were placed in the incubator at 37° C. for 24 hours.
Afterward, stock solutions of test compounds and omeprazole positive control were prepared. Compound solutions were transferred into the assay plate using Echo550. The plate was then placed back into the incubator for compound treatment.
Later, after 24 hours of treatment, the plate was removed from the incubator and allowed to cool at ambient temperature. 30 μL One-Glo reagent equal to that of the culture medium was added in each well. Cells were allowed to lyse for at least 3 minutes, and then measured in a luminometer.
Dose responses were graphed using the non-linear regression analysis in XLfit and EC50 values were also calculated.

[2] = target: T1, arylhydrocarbon receptor (AhR); set-up: HepG2 cells stably transfected with an AhR-responsive luciferase reporter gene plasmid; host or cells: HepG2-AhR-Luc (HepG2 stably transfected with an AhR-responsive luciferase reporter plasmid); details: cited from earlier work
[3] = EC50 (uM), Table 2, 24 hours of treatment
[4] = EC50 (uM), Table 1, 24 hours of treatment

Row | SMILES | EC50 [1, 3] | further results
1 | COC(=O)c1c(C(c2c[nH]c3ccccc23)C2CC2)[nH]c2ccccc12 (stereo not shown) [AB17151] | 13.7 µM | 
2 | OCc1c(Cc2c[nH]c3ccccc23)[nH]c2ccccc12 [CV-8803] |  | EC50 [1, 4]: 13.9 µM
3 | O=C(c1c[nH]c2ccccc12)c1nccc2c1[nH]c1ccccc12 [AB17014, Pityriacitrin] | 3.46 µM | 
4 | CC(c1[nH]c2ccccc2c1C(=O)O)c1c[nH]c2ccccc12 (stereo not shown) [Compound B10] | 4.29 µM | 
5 | Clc1cc2c(cc1Cl)Oc1cc(Cl)c(Cl)cc1O2 [TCDD, 2,3,7,8-tetrachlorodibenzodioxin, reference compound] | 0.0018 µM and 0.0031 µM | 
6 | c1ccc2[nH]c(Cc3c[nH]c4ccccc34)cc2c1 [Malassezin Precursor] | 37.3 µM | 
7 | CC(c1[nH]c2ccccc2c1CO)c1c[nH]c2ccccc12 (stereo not shown) [CV-8804] |  | EC50 [1, 4]: 15.7 µM
8 | Nc1c(C(=O)O)c2nc3c(C(=O)O)cccc3oc-2cc1=O [cinnabarinic acid] |  | AhR agonism [2]: Agonists
9 | O=C1Nc2ccccc2/C1=C1/Nc2ccccc2C1=O [Indirubin] |  | AhR agonism [2]: known agonist
10 | O=Cc1c2[nH]c3ccccc3c2cc2[nH]c3ccccc3c12 [6-formylindolo[3,2-b] carbazole (FICZ), 6-formylindolo[3,2-b] carbazole] |  | AhR agonism [2]: Agonists
11 | O=Cc1c(C(=O)c2c[nH]c3ccccc23)[nH]c2ccccc12 [Compound A5 (CV-8819)] | 4.11 µM | 
12 | O=C[C@@H]1Cc2c([nH]c3ccccc23)[C@@H](c2c[nH]c3ccccc23)CN1 [AB17011, Malassezia Indole A] | 35.8 µM | 
13 | COC(c1[nH]c2ccccc2c1C=O)c1c[nH]c2ccccc12 (stereo not shown) [Compound H (AB12509)] | 11.6 µM | 
14 | Cc1ccc2c(c1)[nH]c1cc3c(cc12)[nH]c1ccccc13 [Compound IV (CV-8687)] | 33.6 µM | 
15 | Cc1ccc2cc3c(ccc4ccccc43)c3c2c1CC3 [Compound 3-MC, 3-methylcholanthrene, reference compound] |  | EC50 [1]: 4.34 µM
16 | COc1ccc2[nH]c([S+]([O-])Cc3ncc(C)c(OC)c3C)nc2c1 (stereo not shown) [Omeprazole, omeprazole, reference compound] | 42.3 µM and 39.8 µM | EC50 [1, 4]: 21.4 µM
17 | Nc1ccccc1C(=O)CC(N)C(=O)O (stereo not shown) [kynurenine] |  | AhR agonism [2]: Agonists
18 | Cc1ccc2c(c1)[nH]c1c(C)c3c(cc12)[nH]c1ccccc13 [AB17225] | 3.93 µM | 
19 | CC(c1[nH]c2ccccc2c1C=O)c1c[nH]c2ccccc12 (stereo not shown) [Compound II (CV-8688] | 13.4 µM | 
20 | Cc1ccc2c(Cc3[nH]c4ccccc4c3C=O)c[nH]c2c1 [Compound I (CV-8686)] | 5.45 µM | 
21 | O=C(Cc1c[nH]c2ccccc12)Cc1c[nH]c2ccccc12 [AB12976] | 16.5 µM | 
